Assay results taken from patent EP0065513B1, “ANTIMYCOTIC SYNERGISTIC PHARMACEUTICAL COMPOSITIONS AND PROCESS FOR THE PREPARATION THEREOF” (CHINOIN Gyogyszer és Vegyészeti Termékek Gyára RT., priority 1980, dated 1982).

Tests used:
Candida albicans = assay: In vitro growth inhibition test in liquid nutrient medium; format: cell-based
Experimental: (§1) Candida albicans and Trichomonas vaginalis strains are cultured in a liquid nutrient medium. Incubation is carried out at 37°C for 48 hours. Each nutrient medium (10 ml) is inoculated with 1000 germs per ml. The number of germs is determined in a Burker chamber. Dilution series are prepared from the stock inoculum by using a physiological sodium chloride solution. To the mixture of the nutrient medium and 0.5 ml a physiological sodium chloride solution 2-methyl-1,4-naphthoquinone, nystatin and mixtures thereof are added.
(§2) The minimal inhibitory concentration of nystatin is determined in the manner disclosed above.
(§3) 1.25 mg/10 ml of 2-methyl-1,4-naphthoquinone is added to an amount of nystatin being the one fiftieth (1/50) part of the minimal inhibitory concentration. Complete inhibition of the growth of Candida albicans and Trichomonas vaginalis was observed.

Trichomonas vaginalis = assay: as above; format: cell-based
Experimental: as §1, §2, §3

[1] = tested on: vulvovaginitis candidomycetica; assay: In vivo test: treatment of patients with suppositories; details: patients with vulvovaginitis candidomycetica treated with suppositories; number of patients 35
Experimental: Patients suffering of vulvovaginitis candidomycetica are treated with suppositories according to Example 1. As control suppositories containing no 2-methyl-1,4-naphthoquinone-sodium sulfite adduct but nystatin only are used. Number of patients 35.

[2] = concentration smaller than 5 mg/10 ml
[3] = liquid nutrient medium 10 ml, 1000 germs per ml, 37°C, 48 hours

Structure (SMILES)	activity at a smaller concentration than the minimal inhibitory concentration (Candida albicans; [2])	minimal inhibitory concentration (Candida albicans; [3])	activity at a smaller concentration than the minimal inhibitory concentration (Trichomonas vaginalis; [2])	minimal inhibitory concentration (Trichomonas vaginalis; [3])	Recovery, in % of the cases [1]
CC1=CC(=O)c2ccccc2C1=O [2-methyl-1,4-naphthoquinone]	completely inactive	5 mg/10 ml	completely inactive	5 mg/10 ml	–
C[C@@H]1[C@H](O)[C@@H](C)/C=C/C=C/CC/C=C/C=C/C=C/C=C/C(O[C@H]2O[C@H](C)[C@@H](O)[C@H](N)[C@@H]2O)CC2O[C@](O)(CC(O)C(O)CCC(O)CC(O)CC(O)CC(=O)O[C@H]1C)CC(O)C2C(=O)O (some centres unmarked) [Nystatin]	–	–	–	–	66%
